Data on 5 compounds can be found in patent publication US8449898B2 (priority 2007, dated 2013).

Assay [1] has as its system Phytophthora infestans (the causal agent of tomato late blight). The assay is described as follows: whole plant or invertebrate. It is filed as in vivo. To be noted: for TLB Obsd (disease control rating): Table B.
For assay [2], the system named is Pseudoperonospora cubensis (the causal agent of cucumber downy mildew). As to the kind of experiment: Test B: cucumber downy mildew, preventive spray on cucumber seedlings. It is filed as in vivo. To be noted: for CDM Obsd (disease control rating): Table B.
The mark [3] stands for this setting: Table D, component (b) alone at 2 ppm.
Setting [4] is: Table D, component (b) alone at 10 ppm.
Setting [5] is: Table D, component (b) alone at 40 ppm.
Where [6] appears, read: Table D, component (b) alone at 200 ppm.
The mark [7] stands for this setting: Table D, component (b) alone at 500 ppm.
Where [8] appears, read: component (b) alone 2 ppm (Compound 1 0 ppm).
Where [9] appears, read: component (b) alone 10 ppm (Compound 1 0 ppm).
[10] abbreviates: component (b) alone 40 ppm (Compound 1 0 ppm).
[11] abbreviates: Pseudoperonospora cubensis, Compound 214 alone, read-out: CDM Obsd.
The mark [12] stands for this setting: Pseudoperonospora cubensis, Compound 214 alone, read-out: CDM Obsd (observed effect, cucumber downy mildew).

Each structure is given as a SMILES string. Read-outs that look alike come from different tables or passages of the source.

Take `C[C@@]1(c2ccc(Oc3ccccc3)cc2)OC(=O)N(Nc2ccccc2)C1=O` (racemic) [famoxadone]: the pest or weed control at 0.4 ppm in assay [1] (Phytophthora infestans, read-out: TLB Obsd (disease control rating), Table C, component (b) alone 0.4 ppm) was determined as 17%; in assay [2] (Pseudoperonospora cubensis, Table C, component (b) alone 0.4 ppm, read-out: CDM Obsd (disease control rating)), 47%. Besides, the pest or weed control at 2 ppm was 26% in assay [1] (Phytophthora infestans, read-out: TLB Obsd (disease control rating), Table C, component (b) alone 2 ppm); 32% in assay [1] (Phytophthora infestans, read-out: TLB Obsd, component (b) alone, 2 ppm); 63% in assay [2] (Pseudoperonospora cubensis, Table C, component (b) alone 2 ppm, read-out: CDM Obsd (disease control rating)); 21% in assay [2] (Pseudoperonospora cubensis, component (b) alone, 2 ppm, read-out: CDM Obsd). In addition, the pest or weed control at 10 ppm in assay [1] (Phytophthora infestans, read-out: TLB Obsd (disease control rating), Table C, component (b) alone 10 ppm) came to 67%; in assay [1] (Phytophthora infestans, read-out: TLB Obsd, component (b) alone, 10 ppm), 93%; in assay [2] (Pseudoperonospora cubensis, Table C, component (b) alone 10 ppm, read-out: CDM Obsd (disease control rating)) it was 95%; in assay [2] (Pseudoperonospora cubensis, component (b) alone, 10 ppm, read-out: CDM Obsd) it was 72%. For the same compound, the pest or weed control at 40 ppm in assay [1] (Phytophthora infestans, read-out: TLB Obsd (disease control rating), Table C, component (b) alone 40 ppm) was 53%; in assay [1] (Phytophthora infestans, read-out: TLB Obsd, component (b) alone, 40 ppm), 98%; in assay [2] (Pseudoperonospora cubensis, Table C, component (b) alone 40 ppm, read-out: CDM Obsd (disease control rating)), 100%; in assay [2] (Pseudoperonospora cubensis, component (b) alone, 40 ppm, read-out: CDM Obsd), 100%. Further, the pest or weed control at 200 ppm in assay [1] (Phytophthora infestans, read-out: TLB Obsd (disease control rating), Table C, component (b) alone 200 ppm) worked out at 66%; in assay [1] (Phytophthora infestans, read-out: TLB Obsd, component (b) alone, 200 ppm) it was 100%; in assay [2] (Pseudoperonospora cubensis, Table C, component (b) alone 200 ppm, read-out: CDM Obsd (disease control rating)), 100%; in assay [2] (Pseudoperonospora cubensis, component (b) alone, 200 ppm, read-out: CDM Obsd), 100%. The pest or weed control at 0.04 ppm in assay [1] (Phytophthora infestans, read-out: TLB Obsd, component (b) alone, 0.04 ppm) was 100%; in assay [2] (Pseudoperonospora cubensis, component (b) alone, 0.04 ppm, read-out: CDM Obsd), 100%. The pest or weed control at 0.4 µg/mL in assay [2] (Pseudoperonospora cubensis, component (b) alone 0.4 ppm (Compound 1 0 ppm), read-out: CDM Obsd) was 47%. In addition, in assay [2] (Pseudoperonospora cubensis, component (b) alone 2 ppm (Compound 1 0 ppm), read-out: CDM Obsd), the pest or weed control at 2 µg/mL was 58%. Also, the pest or weed control at 10 µg/mL in assay [2] (Pseudoperonospora cubensis, component (b) alone 10 ppm (Compound 1 0 ppm), read-out: CDM Obsd) is 87%. Besides, the pest or weed control at 40 µg/mL in assay [2] (Pseudoperonospora cubensis, component (b) alone 40 ppm (Compound 1 0 ppm), read-out: CDM Obsd) was 100%. The pest or weed control at 200 µg/mL in assay [2] (Pseudoperonospora cubensis, component (b) alone 200 ppm (Compound 1 0 ppm), read-out: CDM Obsd) was found to be 100%.
Take `CC1CCN(c2c(-c3c(F)cc(F)cc3F)c(Cl)nc3ncnn23)CC1` [BAS600, 5-chloro-6-(2,4,6-trifluorophenyl)-7-(4-methylpiperidin-1-yl)[1,2,4]triazolo[1,5-α]pyrimidine]: the “TLB Obsd” value in assay [1] (setting [3]) is listed as 26%; in assay [1] (setting [4]) it was 6%; in assay [1] (setting [5]), 56%; in assay [1] (setting [6]), 20%; in assay [1] (setting [7]), 12%; in assay [1] (component (b) alone, 2 ppm), 7%. For the same compound, the “TLB Obsd” value in assay [1] (component (b) alone, 10 ppm) came to 0%; in assay [1] (component (b) alone, 40 ppm) it was 15%; in assay [1] (component (b) alone, 200 ppm), 30%; in assay [1] (component (b) alone, 500 ppm), 15%. Further, the “CDM Obsd” value in assay [2] (setting [3]) turned out to be 47%; in assay [2] (setting [4]) it was 99%; in assay [2] (setting [5]) it was 100%; in assay [2] (setting [6]), 100%; in assay [2] (setting [7]), 100%; in assay [2] (setting [8]) it was 0%. Further, the “CDM Obsd” value is on record as 72% in assay [2] (setting [9]); 100% in assay [2] (setting [10]); 100% in assay [2] (component (b) alone 200 ppm (Compound 1 0 ppm)); 0% in assay [2] (component (b) alone, 2 ppm); 99% in assay [2] (component (b) alone, 10 ppm); 100% in assay [2] (component (b) alone, 40 ppm). The “CDM Obsd” value in assay [2] (component (b) alone, 200 ppm) was 100%; in assay [2] (component (b) alone, 500 ppm), 100%.
In the case of `Cc1cc(C(F)(F)F)nn1CC(=O)N1CCC(c2nc(C3=NO[C@@H](c4c(F)cccc4F)C3)cs2)CC1` [Compound 214, 1-[4-[4-[(5R)-5-(2,6-difluorophenyl)-4,5-dihydro-3-isoxazolyl]-2-thiazolyl]-1-piperidinyl]-2-[5-methyl-3-(trifluoromethyl)-1H-pyrazol-1-yl]ethanone], the pest or weed control at 0.001 ppm in assay [1] (Phytophthora infestans, read-out: TLB Obsd (observed effect, tomato late blight), Compound 214 alone, 0.001 ppm) was determined as 44%; in assay [1] (Phytophthora infestans, read-out: TLB Obsd, Compound 214 alone, 0.001 ppm), 22%; in assay [2] (Pseudoperonospora cubensis, Compound 214 alone, 0.001 ppm, read-out: CDM Obsd (observed effect, cucumber downy mildew)), 16%. Moreover, the pest or weed control at 0.01 ppm turned out to be 98% in assay [1] (Phytophthora infestans, read-out: TLB Obsd (observed effect, tomato late blight), Compound 214 alone, 0.01 ppm); 98% in assay [1] (Phytophthora infestans, read-out: TLB Obsd, Compound 214 alone, 0.01 ppm); 88% in assay [2] (setting [11]); 83% in assay [2] (setting [12]). The pest or weed control at 0.1 ppm was found to be 100% in assay [1] (Phytophthora infestans, read-out: TLB Obsd (observed effect, tomato late blight), Compound 214 alone, 0.1 ppm); 100% in assay [1] (Phytophthora infestans, read-out: TLB Obsd, Compound 214 alone, 0.1 ppm); 100% in assay [2] (setting [11]); 100% in assay [2] (setting [12]).
As to `CO/C=C(/C(=O)OC)c1ccccc1Oc1cc(Oc2ccccc2C#N)ncn1` [azoxystrobin], the “TLB Obsd (disease control rating)” value in assay [1] (component (b) alone 0.08 ppm) is recorded as 0%; in assay [1] (component (b) alone 0.4 ppm) it was 16%; in assay [1] (component (b) alone 2 ppm), 26%; in assay [1] (component (b) alone 10 ppm), 58%; in assay [1] (component (b) alone 40 ppm), 99%. Further, the “TLB Obsd (observed effect, tomato late blight)” value in assay [1] (component (b) alone, 0.4 ppm) amounted to 29; in assay [1] (component (b) alone, 2 ppm), 56; in assay [1] (component (b) alone, 10 ppm) it was 90; in assay [1] (component (b) alone, 40 ppm) it was 100. The “CDM Obsd (disease control rating)” value in assay [2] (component (b) alone 0.08 ppm) was 64%; in assay [2] (component (b) alone 0.4 ppm) it was 80%; in assay [2] (component (b) alone 2 ppm), 100%; in assay [2] (component (b) alone 10 ppm) it was 100%; in assay [2] (component (b) alone 40 ppm), 100%. In addition, the “CDM Obsd” value in assay [2] (component (b) alone 0.08 ppm (Compound 1 0 ppm)) was determined as 26%; in assay [2] (component (b) alone 0.4 ppm (Compound 1 0 ppm)), 40%; in assay [2] (setting [8]), 100%; in assay [2] (setting [9]), 100%; in assay [2] (setting [10]) it was 100%. The “CDM Obsd (observed effect, cucumber downy mildew)” value in assay [2] (component (b) alone, 0.4 ppm) came out at 0; in assay [2] (component (b) alone, 2 ppm) it was 70; in assay [2] (component (b) alone, 10 ppm) it was 100; in assay [2] (component (b) alone, 40 ppm), 100.
For `CC(C)[C@H](NC(=O)O)C(=O)N[C@H](C)c1nc2ccc(F)cc2s1` [benthiavalicarb], the “TLB Obsd (observed effect, tomato late blight)” value in assay [1] (component (b) alone, 0.08 ppm) is listed as 21; in assay [1] (component (b) alone, 0.4 ppm), 82; in assay [1] (component (b) alone, 2 ppm), 100; in assay [1] (component (b) alone, 10 ppm), 100; in assay [1] (component (b) alone, 40 ppm), 100. Besides, the “CDM Obsd (observed effect, cucumber downy mildew)” value in assay [2] (component (b) alone, 0.08 ppm) was 0; in assay [2] (component (b) alone, 0.4 ppm), 75; in assay [2] (component (b) alone, 2 ppm), 100; in assay [2] (component (b) alone, 10 ppm), 100; in assay [2] (component (b) alone, 40 ppm) it was 100.
